Source: article PMC6934184, “Selective DNA-PKcs inhibition extends the therapeutic index of localized radiotherapy and chemotherapy” (The Journal of Clinical Investigation, 2019)

Target: T1, ICK (Homo sapiens, UniProt Q9UPZ9)
T1 construct: purchased Thermo Fisher Scientific (Life Technologies) SelectScreen
Assay: SelectScreen LanthaScreen
Format: binding
Details: read-out: % displacement
How it was run: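 SelectScreen broad panel; activity (Z'LYTE, Adapta) plus binding formats. ATP: Km app for CSF1R Z'LYTE; 10 for CAMK1 Adapta. Readout = % per kinase.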

T1 sequence (Q9UPZ9 whole entry): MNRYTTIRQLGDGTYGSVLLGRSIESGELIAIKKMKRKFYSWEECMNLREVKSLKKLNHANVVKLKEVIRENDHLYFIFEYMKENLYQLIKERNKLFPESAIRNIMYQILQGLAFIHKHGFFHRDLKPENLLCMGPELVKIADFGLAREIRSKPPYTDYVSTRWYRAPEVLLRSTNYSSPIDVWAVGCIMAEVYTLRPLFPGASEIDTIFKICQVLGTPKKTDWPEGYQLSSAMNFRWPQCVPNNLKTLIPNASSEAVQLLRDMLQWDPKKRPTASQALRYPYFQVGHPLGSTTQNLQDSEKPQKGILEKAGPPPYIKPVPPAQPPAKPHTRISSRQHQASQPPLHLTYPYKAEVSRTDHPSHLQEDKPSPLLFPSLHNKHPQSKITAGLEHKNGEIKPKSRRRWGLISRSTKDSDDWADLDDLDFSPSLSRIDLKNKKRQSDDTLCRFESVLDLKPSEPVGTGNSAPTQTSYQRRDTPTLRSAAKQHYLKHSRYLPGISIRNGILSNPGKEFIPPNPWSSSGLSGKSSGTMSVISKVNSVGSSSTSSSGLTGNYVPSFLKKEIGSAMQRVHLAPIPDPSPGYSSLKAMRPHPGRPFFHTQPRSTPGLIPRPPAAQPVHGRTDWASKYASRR

Compound `CN(C(=O)CN1CCOCC1)c1ccc2sc3c(-c4cccc5c(=O)cc(N6CC7CCC(C6)O7)oc45)cccc3c2c1` [NU5455] has an inhibition at 1 µM of 0%.
